Test results taken from US20150087627A1, “COMBINATION OF KINASE INHIBITORS AND USES THEREOF” (Intellikine LLC, priority 2011, published 2015).
Read-outs that look alike come from different tables or passages of the source.

How the values were obtained:
Type in all cases: biochemical
[1] = target: T1, PI3K δ (Homo sapiens, UniProt O00329); assay: PI 3-Kinase (human) HTRF assay, PI3K δ; conditions: read-out: PI3K δ IC50
T1 construct: purchased Upstate / Millipore Corporation
Procedure: Briefly, the assay is a time resolved FRET assay that indirectly measures PIP3 product formed by the activity of a PI3-K. The kinase reaction is performed in a microtiter plate (e.g., a 384 well microtiter plate). The total reaction volume is approximately 20 ul per well. In the first step, each well receives 2 ul of test compound in 20% dimethylsulphoxide resulting in a 2% DMSO final concentration. […] The plate is sealed and incubated for 15 minutes at room temperature. […] The plate is sealed and incubated for 1 hour at room temperature. The reaction is stopped by adding 5 ul of Stop Solution per well and then 5 ul of Detection Mix is added per well. The plate is sealed, incubated for 1 hour at room temperature, and then read on an appropriate plate reader. Data is analyzed and IC50s are generated using GraphPad Prism 5.

[2] = target: T2, PI3K β (p110β/p85α) (Homo sapiens, UniProt P42338); assay: PI 3-Kinase (human) HTRF assay, PI3K β; conditions: read-out: PI3K β IC50
T2 construct: purchased Upstate / Millipore Corporation
T2 sequence (P42338 whole entry): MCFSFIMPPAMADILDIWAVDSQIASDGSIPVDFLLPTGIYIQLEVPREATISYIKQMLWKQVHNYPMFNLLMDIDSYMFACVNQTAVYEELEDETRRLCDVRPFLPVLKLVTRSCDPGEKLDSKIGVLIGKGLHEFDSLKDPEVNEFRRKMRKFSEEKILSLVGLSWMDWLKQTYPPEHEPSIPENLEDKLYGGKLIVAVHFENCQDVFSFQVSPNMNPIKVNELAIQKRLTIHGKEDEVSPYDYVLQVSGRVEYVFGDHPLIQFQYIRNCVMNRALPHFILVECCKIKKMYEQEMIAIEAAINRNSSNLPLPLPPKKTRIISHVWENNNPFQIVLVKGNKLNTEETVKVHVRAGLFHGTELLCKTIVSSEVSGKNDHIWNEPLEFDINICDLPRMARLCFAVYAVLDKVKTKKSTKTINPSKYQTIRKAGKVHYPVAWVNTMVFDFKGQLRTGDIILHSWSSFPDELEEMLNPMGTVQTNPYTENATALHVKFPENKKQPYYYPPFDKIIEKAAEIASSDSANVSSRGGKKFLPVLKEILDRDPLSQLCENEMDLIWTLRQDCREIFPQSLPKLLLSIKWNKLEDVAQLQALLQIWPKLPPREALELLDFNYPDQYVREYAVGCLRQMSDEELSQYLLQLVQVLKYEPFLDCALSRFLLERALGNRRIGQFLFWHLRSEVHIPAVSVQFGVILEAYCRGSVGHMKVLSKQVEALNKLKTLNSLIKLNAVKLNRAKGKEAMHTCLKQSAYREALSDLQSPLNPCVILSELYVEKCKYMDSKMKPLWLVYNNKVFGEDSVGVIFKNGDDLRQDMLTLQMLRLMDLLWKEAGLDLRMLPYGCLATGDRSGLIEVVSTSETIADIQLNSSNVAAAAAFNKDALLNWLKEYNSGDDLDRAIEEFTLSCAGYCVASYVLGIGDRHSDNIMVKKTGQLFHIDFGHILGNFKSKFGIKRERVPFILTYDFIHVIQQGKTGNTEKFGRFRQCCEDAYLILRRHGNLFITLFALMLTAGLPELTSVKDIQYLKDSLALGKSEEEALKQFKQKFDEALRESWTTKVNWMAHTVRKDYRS
T2 sequence (P27986 whole entry partner): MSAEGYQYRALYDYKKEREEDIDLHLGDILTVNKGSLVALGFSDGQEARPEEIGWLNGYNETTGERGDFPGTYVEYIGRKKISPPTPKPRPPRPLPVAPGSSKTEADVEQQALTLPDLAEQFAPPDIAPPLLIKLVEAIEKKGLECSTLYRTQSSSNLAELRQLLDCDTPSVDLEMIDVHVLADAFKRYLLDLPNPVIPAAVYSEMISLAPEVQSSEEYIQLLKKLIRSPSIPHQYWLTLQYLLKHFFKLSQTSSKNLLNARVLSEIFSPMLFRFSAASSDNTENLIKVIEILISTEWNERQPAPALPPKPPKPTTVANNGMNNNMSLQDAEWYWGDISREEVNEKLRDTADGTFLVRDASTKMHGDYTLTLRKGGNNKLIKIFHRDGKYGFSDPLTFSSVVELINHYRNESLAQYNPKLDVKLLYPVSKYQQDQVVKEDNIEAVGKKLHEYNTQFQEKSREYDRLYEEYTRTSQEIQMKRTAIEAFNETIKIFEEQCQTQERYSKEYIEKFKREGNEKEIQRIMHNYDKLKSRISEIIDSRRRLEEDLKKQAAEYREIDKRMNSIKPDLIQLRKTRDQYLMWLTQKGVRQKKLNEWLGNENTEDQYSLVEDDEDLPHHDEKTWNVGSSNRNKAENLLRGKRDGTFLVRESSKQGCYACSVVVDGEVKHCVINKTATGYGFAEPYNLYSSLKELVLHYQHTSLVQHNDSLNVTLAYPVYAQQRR

[3] = target: T3, PI3K α (p110α/p85α) (Homo sapiens, UniProt P42336); assay: PI 3-Kinase (human) HTRF assay, PI3K α; conditions: read-out: PI3K α IC50
T3 construct: purchased Upstate / Millipore Corporation
T3 sequence (P42336 whole entry): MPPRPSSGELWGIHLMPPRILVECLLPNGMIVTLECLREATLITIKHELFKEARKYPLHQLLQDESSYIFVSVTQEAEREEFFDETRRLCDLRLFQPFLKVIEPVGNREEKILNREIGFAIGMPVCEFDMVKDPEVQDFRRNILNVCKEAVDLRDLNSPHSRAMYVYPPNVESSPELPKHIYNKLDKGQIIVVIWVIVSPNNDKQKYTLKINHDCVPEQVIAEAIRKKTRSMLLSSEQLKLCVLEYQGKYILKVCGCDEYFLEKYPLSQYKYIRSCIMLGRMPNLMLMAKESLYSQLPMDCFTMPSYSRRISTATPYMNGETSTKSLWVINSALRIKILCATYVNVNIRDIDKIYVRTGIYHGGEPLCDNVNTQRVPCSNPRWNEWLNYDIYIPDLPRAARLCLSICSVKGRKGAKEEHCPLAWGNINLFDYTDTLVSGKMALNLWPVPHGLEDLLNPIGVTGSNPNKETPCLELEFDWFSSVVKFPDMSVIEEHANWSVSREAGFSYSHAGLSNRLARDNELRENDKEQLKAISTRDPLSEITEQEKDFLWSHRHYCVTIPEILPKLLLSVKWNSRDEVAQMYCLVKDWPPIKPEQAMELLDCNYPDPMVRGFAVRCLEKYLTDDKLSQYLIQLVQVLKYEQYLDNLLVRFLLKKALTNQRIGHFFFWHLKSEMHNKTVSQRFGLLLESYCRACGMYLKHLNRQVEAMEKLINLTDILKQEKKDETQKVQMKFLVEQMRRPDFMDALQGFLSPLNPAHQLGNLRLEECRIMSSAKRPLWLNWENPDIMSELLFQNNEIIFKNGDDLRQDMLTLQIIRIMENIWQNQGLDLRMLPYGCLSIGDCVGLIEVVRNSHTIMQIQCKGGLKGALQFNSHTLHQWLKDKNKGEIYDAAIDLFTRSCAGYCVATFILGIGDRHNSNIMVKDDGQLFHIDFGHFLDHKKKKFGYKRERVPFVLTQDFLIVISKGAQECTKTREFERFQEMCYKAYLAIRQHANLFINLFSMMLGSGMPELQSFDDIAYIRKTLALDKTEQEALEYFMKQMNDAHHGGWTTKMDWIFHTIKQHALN
T3 sequence (P27986 whole entry partner): as the sequence (P27986 whole entry partner) above

T1 sequence (O00329 whole entry): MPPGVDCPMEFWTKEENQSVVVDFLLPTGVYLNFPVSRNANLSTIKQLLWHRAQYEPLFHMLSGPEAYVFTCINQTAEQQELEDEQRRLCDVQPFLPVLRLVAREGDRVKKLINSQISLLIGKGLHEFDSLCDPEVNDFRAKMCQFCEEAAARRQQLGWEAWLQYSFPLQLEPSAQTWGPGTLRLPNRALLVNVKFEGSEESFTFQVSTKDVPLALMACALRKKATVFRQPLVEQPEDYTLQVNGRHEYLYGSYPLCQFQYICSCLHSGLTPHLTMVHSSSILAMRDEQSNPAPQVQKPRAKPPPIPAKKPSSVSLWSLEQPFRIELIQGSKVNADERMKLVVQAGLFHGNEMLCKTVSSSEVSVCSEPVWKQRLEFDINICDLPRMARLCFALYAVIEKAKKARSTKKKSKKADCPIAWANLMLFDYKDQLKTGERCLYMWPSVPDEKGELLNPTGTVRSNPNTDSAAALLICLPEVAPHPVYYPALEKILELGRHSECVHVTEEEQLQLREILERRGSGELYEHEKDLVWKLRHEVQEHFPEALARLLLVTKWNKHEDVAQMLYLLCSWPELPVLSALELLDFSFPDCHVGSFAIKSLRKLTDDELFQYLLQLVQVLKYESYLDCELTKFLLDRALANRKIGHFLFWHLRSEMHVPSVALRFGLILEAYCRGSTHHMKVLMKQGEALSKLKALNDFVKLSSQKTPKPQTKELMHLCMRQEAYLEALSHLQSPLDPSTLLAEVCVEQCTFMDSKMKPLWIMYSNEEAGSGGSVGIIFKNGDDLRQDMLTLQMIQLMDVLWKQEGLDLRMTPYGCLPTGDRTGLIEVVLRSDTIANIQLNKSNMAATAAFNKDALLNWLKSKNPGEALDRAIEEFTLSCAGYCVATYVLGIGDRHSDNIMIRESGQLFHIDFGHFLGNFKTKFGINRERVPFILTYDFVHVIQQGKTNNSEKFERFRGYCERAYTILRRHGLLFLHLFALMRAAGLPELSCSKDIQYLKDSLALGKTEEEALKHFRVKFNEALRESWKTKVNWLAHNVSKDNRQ
T1 sequence (P27986 whole entry partner): as the sequence (P27986 whole entry partner) above

| Structure (SMILES) | IC50 [1] [nM] | IC50 [2] [nM] | IC50 [3] [nM] | IC50 ([2]; Table 4 (PI3K α inhibitors)) [nM] | IC50 ([3]; Table 4 (PI3K α inhibitors)) [nM] | IC50 ([1]; Table 4 (PI3K α inhibitors)) [nM] |
| --- | --- | --- | --- | --- | --- | --- |
| Nc1nc2cc(-c3ccc4nccc(-c5cn[nH]c5)c4c3)ccc2o1 [Compound 20] | < 100 | < 100 | < 100 | – | – | – |
| Nc1nc2cc(-c3ccc4ncc(-c5cccnc5)n4c3)ccc2o1 [Compound 37] | < 100 | – | < 100 | – | – | – |
| Nc1nc2cc(-c3ccc4ncc(C#CC5CC5)n4c3)ccc2o1 [Compound 39] | < 100 | – | < 100 | – | – | – |
| Nc1nc2cc(-c3ccc4ncn(C5CCNCC5)c(=O)c4c3)ccc2o1 [Compound 75] | > 10000 | < 10000 | < 100 | – | – | – |
| Nc1nc2cc(-c3ccc4ncc(-c5cn[nH]c5)nc4c3)ccc2o1 [Compound 78] | < 1000 | < 1000 | < 100 | – | – | – |
| Cn1cc(-c2cnc3ccc(-c4ccc5oc(N)nc5c4)cc3n2)cn1 [Compound 94] | < 10000 | < 1000 | < 100 | – | – | – |
| CN(C)CC(=O)N1CCC(Nc2ncnc3ccc(-c4ccc5oc(N)nc5c4)cc23)CC1 [Compound 103] | < 1000 | < 1000 | < 100 | – | – | – |
| Nc1nc2cc(-c3ccc4ncc(C(=O)N5CCS(=O)(=O)CC5)n4c3)ccc2o1 [Compound 107] | > 10000 | > 10000 | < 1000 | – | – | – |
| CN1CCN(c2cnc3ccc(-c4ccc5nc(N)oc5c4)cc3n2)CC1 [Compound 118] | > 10000 | < 100 | < 1000 | – | – | – |
| CC1CN(c2cnc3ccc(-c4ccc5oc(N)nc5c4)cc3n2)CC(C)N1 (stereo not shown) [Compound 131] | < 1000 | < 1000 | < 1000 | – | – | – |
| CC(N)C(=O)N1CCN(c2cnc3ccc(-c4ccc5oc(N)nc5c4)cc3n2)CC1 (stereo not shown) [Compound 134] | < 1000 | < 1000 | < 100 | – | – | – |
| CN1CCN(C(=O)c2cnc3ccc(-c4ccc5sc(N)nc5c4)cn23)CC1 [Compound 144] | > 10000 | < 10000 | < 1000 | – | – | – |
| CN1CCN(C(=O)c2cnc3ccc(-c4ccc5nc(N)oc5c4)cn23)CC1 [Compound 145] | > 10000 | < 10000 | < 1000 | – | – | – |
| CC1CN(c2cnc3ccc(-c4ccc5oc(N)nc5c4)cc3n2)CCO1 (stereo not shown) [Compound 173] | < 10000 | < 1000 | < 100 | – | – | – |
| C[C@H]1CN(c2cnc3ccc(-c4ccc5oc(N)nc5c4)cc3n2)CCN1 [Compound 178] | < 1000 | < 100 | < 100 | – | – | – |
| C[C@@H]1CN(c2cnc3ccc(-c4ccc5oc(N)nc5c4)cc3n2)CCN1 [Compound 179] | – | < 1000 | < 100 | – | – | – |
| CCNC(=O)c1cnc2ccc(-c3ccc4oc(N)nc4c3)cn12 [Compound 188] | < 1000 | < 1000 | < 100 | – | – | – |
| CS(=O)(=O)CCN1CCN(C(=O)c2cnc3ccc(-c4ccc5oc(N)nc5c4)cn23)CC1 [Compound 198] | < 10000 | < 10000 | < 100 | – | – | – |
| Nc1nc2cc(-c3ccc4ncc(C(=O)N5CCC(O)C5)n4c3)ccc2o1 (stereo not shown) [Compound 202] | < 10000 | < 10000 | < 100 | – | – | – |
| Nc1nc2cc(-c3ccc4ncc(C(=O)N5CCC(N)CC5)n4c3)ccc2o1 [Compound 204] | > 10000 | < 1000 | < 100 | – | – | – |
| CC(C)(N)C(=O)N1CCN(c2cnc3ccc(-c4ccc5oc(N)nc5c4)cc3n2)CC1 [Compound 213] | < 1000 | < 1000 | < 100 | – | – | – |
| Nc1nc2cc(-c3ccc4ncc(N5CC(O)C5)nc4c3)ccc2o1 [Compound 216] | < 10000 | < 1000 | < 100 | – | – | – |
| Nc1nc2cc(-c3ccc4ncc(NCCCN5CCCC5)nc4c3)ccc2o1 [Compound 221] | < 100 | < 1000 | < 100 | – | – | – |
| CN1CCN(C2CCN(c3cnc4ccc(-c5ccc6oc(N)nc6c5)cc4n3)CC2)CC1 [Compound 227] | < 100 | < 1000 | < 100 | – | – | – |

| Structure (SMILES) | IC50 [1] [nM] | IC50 [2] [nM] | IC50 [3] [nM] | IC50 ([2]; Table 4 (PI3K α inhibitors)) [nM] | IC50 ([3]; Table 4 (PI3K α inhibitors)) [nM] | IC50 ([1]; Table 4 (PI3K α inhibitors)) [nM] |
| --- | --- | --- | --- | --- | --- | --- |
| Nc1nc2cc(-c3ccc4nnc(-c5ccncc5)n4c3)ccc2o1 [Compound 229] | > 10000 | < 1000 | < 1000 | – | – | – |
| CC(Oc1nc(-c2ccc3oc(N)nc3c2)cnc1N)C(F)(F)F (stereo not shown) [Compound 239] | < 10000 | < 1000 | < 10000 | – | – | – |
| CC(=O)Nc1nc2cc(-c3ccc4oc(N)nc4c3)ccc2o1 [Compound 244] | > 10000 | > 10000 | > 10000 | – | – | – |
| NC(=O)[C@H]1CCCN1C(=O)c1cnc2ccc(-c3ccc4oc(N)nc4c3)cn12 [Compound 260] | > 10000 | > 10000 | < 1000 | – | – | – |
| Nc1nc2cc(-c3ccc4ncc(C(=O)N5CC[C@H](O)C5)n4c3)ccc2o1 [Compound 264] | – | < 10000 | < 100 | – | – | – |
| Nc1nc2cc(-c3ccc4ncc(C(=O)N5CC[C@@H](O)C5)n4c3)ccc2o1 [Compound 265] | – | < 10000 | < 100 | – | – | – |
| CN(C)[C@H]1CCN(c2cnc3ccc(-c4ccc5oc(N)nc5c4)cc3n2)C1 [Compound 382] | – | < 1000 | < 100 | – | – | – |
| CN1CCN(c2cnc3ccc(-c4ccc5oc(N)nc5c4)cc3n2)C(=O)C1 [Compound 390] | – | – | < 10000 | – | – | – |
| C[C@H]1CCCN1C(=O)c1cnc2ccc(-c3ccc4oc(N)nc4c3)cn12 [Compound 482] | – | > 10000 | < 100 | – | – | – |
| Cn1ncc2c(-c3ccc4ncc(C(=O)N5CCOCC5)n4c3)cncc21 [Compound 537] | > 10000 | > 10000 | – | – | – | – |
| Nc1nc2cc(-c3ccc4ncc(C(=O)NCCOCCO)n4c3)ccc2o1 [Compound 550] | < 10000 | < 10000 | – | – | – | – |
| C[C@H]1CN(c2cnc3ccc(-c4ccc5oc(N)nc5c4)nc3n2)CCN1 [Compound 552] | – | – | – | < 100 | < 1000 | – |
| Nc1nc2cc(-c3ccc4ncc(-c5cccnc5)nc4n3)ccc2o1 [Compound 554] | – | – | – | – | < 1000 | > 10000 |
| CN1CCN(c2cnc3ccc(-c4ccc5oc(N)nc5c4)nc3n2)CC1 [Compound 555] | – | – | – | < 1000 | < 1000 | – |
| Nc1nc2cc(-c3ccc4ncc(-c5cccnc5)cc4n3)ccc2o1 [Compound 567] | – | – | – | – | < 100 | – |
| C[C@@H]1CN(C2CN(c3cnc4ccc(-c5ccc6oc(N)nc6c5)nc4n3)C2)CCN1C [Compound 576] | – | – | – | > 10000 | < 100 | – |
| NCC(=O)N1CCN(c2cnc3ccc(-c4ccc5oc(N)nc5c4)nc3n2)CC1 [Compound 584] | – | – | – | – | < 100 | – |
| C[C@@H]1CN(c2cnc3ccc(-c4ccc5oc(N)nc5c4)nc3c2)CCN1 [Compound 599] | – | – | – | < 1000 | < 100 | – |
| C[C@@H]1COCCN1C1CN(c2cnc3ccc(-c4ccc5oc(N)nc5c4)nc3n2)C1 [Compound 600] | – | – | – | > 10000 | – | > 10000 |
| C[C@@H]1CN(C2CN(c3cnc4ccc(-c5ccc6oc(N)nc6c5)nc4c3)C2)CCN1C [Compound 608] | – | – | – | – | < 100 | < 1000 |
| Nc1nc2cc(-c3ccc4ncc(N5CC(N6CCN(C7CC7)CC6)C5)nc4n3)ccc2o1 [Compound 620] | – | – | – | – | < 100 | – |
| Nc1nc2cc(-c3cnc4ccc(N5CCOCC5)nc4c3)ccc2o1 [Compound 624] | – | – | – | > 10000 | – | > 10000 |
| CC(C)(N)C(=O)N1CCN(c2ccc3ncc(-c4ccc5oc(N)nc5c4)cc3n2)CC1 [Compound 633] | – | – | – | > 10000 | – | > 10000 |
